# Patent US8461328B2, “Tricyclic heterocyclic compounds, compositions and methods of use thereof” (Genentech, Inc., priority 2010, dated 2013)
# Where two headings read alike, the source gives them in different places.
# Assays:
# Type in all cases: biochemical
# [1] = biological target: T1, JAK3 (Homo sapiens, UniProt P52333); test: JAK3 inhibition (Table 4); settings: read-out: JAK3 Ki
# T1 construct: made in house; host or cells: SF9 insect cells (baculovirus)
# [2] = biological target: T2, JAK2 (Homo sapiens, UniProt O60674); test: JAK2 inhibition (Table 4); settings: read-out: JAK2 Ki
# T2 construct: made in house; host or cells: SF9 insect cells (baculovirus)
# [3] = biological target: T3, TYK2 (Homo sapiens, UniProt P29597); test: TYK2 inhibition (Table 4)
# T3 construct: made in house; host or cells: SF9 insect cells (baculovirus)
# T3 sequence (P29597 873-1187): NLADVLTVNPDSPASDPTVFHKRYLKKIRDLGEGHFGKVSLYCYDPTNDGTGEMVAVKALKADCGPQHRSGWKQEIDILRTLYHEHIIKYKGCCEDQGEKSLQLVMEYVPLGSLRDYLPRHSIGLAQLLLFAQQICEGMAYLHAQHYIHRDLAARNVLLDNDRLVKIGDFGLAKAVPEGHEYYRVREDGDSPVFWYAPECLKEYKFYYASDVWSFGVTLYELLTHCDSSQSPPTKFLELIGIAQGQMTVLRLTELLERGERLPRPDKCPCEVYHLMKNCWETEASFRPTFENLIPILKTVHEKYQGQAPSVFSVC
# [4] = biological target: T4, JAK1 (Homo sapiens, UniProt P23458); test: JAK1 inhibition (Table 4)
# T4 construct: made in house; host or cells: SF9 insect cells (baculovirus)
# T4 sequence (P23458 852-1154): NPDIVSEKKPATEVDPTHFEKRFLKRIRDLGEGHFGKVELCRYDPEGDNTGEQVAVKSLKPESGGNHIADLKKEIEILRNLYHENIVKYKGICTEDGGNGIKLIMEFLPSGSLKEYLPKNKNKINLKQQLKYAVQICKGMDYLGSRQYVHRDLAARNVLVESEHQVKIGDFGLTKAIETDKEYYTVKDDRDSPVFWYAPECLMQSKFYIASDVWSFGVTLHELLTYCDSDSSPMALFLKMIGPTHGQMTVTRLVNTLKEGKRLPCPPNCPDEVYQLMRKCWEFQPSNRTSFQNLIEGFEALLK
# T2 sequence (O60674 812-1132): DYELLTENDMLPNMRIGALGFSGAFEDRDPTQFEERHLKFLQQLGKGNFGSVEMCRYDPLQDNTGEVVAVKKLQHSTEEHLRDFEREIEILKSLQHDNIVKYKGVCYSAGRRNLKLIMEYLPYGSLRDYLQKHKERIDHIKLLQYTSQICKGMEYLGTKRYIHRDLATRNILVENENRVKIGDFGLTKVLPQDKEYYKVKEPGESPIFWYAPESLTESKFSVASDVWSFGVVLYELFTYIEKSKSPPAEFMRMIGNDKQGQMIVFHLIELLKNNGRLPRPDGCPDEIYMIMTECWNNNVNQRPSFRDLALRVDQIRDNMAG
# T1 sequence (P52333 783-1124): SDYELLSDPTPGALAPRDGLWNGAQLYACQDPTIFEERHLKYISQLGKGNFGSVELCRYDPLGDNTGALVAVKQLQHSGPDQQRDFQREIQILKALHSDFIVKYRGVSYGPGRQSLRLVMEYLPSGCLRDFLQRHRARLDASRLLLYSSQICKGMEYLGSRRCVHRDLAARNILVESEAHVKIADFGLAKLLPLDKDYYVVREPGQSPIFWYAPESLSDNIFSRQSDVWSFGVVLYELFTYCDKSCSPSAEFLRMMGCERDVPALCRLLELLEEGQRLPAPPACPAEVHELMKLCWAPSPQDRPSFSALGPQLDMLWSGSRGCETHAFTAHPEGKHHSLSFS
SMILES,Ki [1],Ki [2],Ki [3],Ki ([4]; read-out: JAK1 Ki),Ki ([4]; JAK1 Ki)
"N#CCCN1CCC(n2c(CNC(=O)c3cccc(F)c3)nc3cnc4[nH]ccc4c32)CC1 [Example 505, N-{1-[1-(2-Cyano-ethyl)-piperidin-4-yl]-1,6-dihydro-1,3,5,6-tetraaza-as-indacen-2-ylmethyl}-3-fluoro-benzamide]",0.0204 µM,0.0224 µM,0.0988 µM,0.00518 µM,
"N#Cc1ccc(S(=O)(=O)N2CCC(n3cnc4cnc5[nH]ccc5c43)CC2)c(Cl)c1 [Example 446, 3-Chloro-4-[4-(6H-1,3,5,6-tetraaza-as-indacen-1-yl)-piperidine-1-sulfonyl]-benzonitrile]",0.189 µM,0.00225 µM,0.0103 µM,0.00114 µM,
"CC(F)(F)CCc1nc2cnc3[nH]ccc3c2n1C1CCN(CCC#N)CC1 [Example 817, 3-{4-[2-(3,3-Difluoro-butyl)-6H-1,3,5,6-tetraaza-as-indacen-1-yl]-piperidin-1-yl}-propionitrile]",0.0637 µM,0.043 µM,0.207 µM,0.00858 µM,
"CC(O)c1nc2cnc3[nH]ccc3c2n1C1CCN(Cc2cnco2)CC1F (stereo not shown) [Example 933, 1-[1-(3-Fluoro-1-oxazol-5-ylmethyl-piperidin-4-yl)-1,6-dihydro-1,3,5,6-tetraaza-as-indacen-2-yl]-ethanol]",0.0112 µM,0.0385 µM,0.0545 µM,0.00184 µM,
"c1ccc(CCN2CCC[C@@H](n3cnc4cnc5[nH]ccc5c43)C2)cc1 [Example 234, 1-((R)-1-Phenthyl-piperidin-3-yl)-1,6-dihydro-1,3,5,6-tetraaza-as-indacene]",0.132 µM,0.179 µM,1.76 µM,0.0633 µM,
"CC(C)S(=O)(=O)NCc1nc2cnc3[nH]ccc3c2n1C1CCN(CCC#N)CC1 [Example 495, Propane-2-sulfonic acid {1-[1-(2-cyano-ethyl)-piperidin-4-yl]-1,6-dihydro-1,3,5,6-tetraaza-as-indacen-2-ylmethyl}-amide]",0.0977 µM,0.106 µM,0.415 µM,0.0162 µM,
"Cc1nc2cnc3[nH]ccc3c2n1C1CCN(CC(C)O)CC1 (stereo not shown) [Example 701, 1-[4-(2-Methyl-6H-1,2,3,5,6-tetraaza-as-indacen-1-yl)-piperidin-1-yl]-propan-2-ol]",0.234 µM,0.0606 µM,0.202 µM,0.0159 µM,
"CN1CC(c2nc3cnc4[nH]ccc4c3n2C2CCN(CCC#N)CC2)CC1=O (racemic) [Example 384, 3-{4-[2-(1-Methyl-5-oxo-pyrrolidin-3-yl)-6H-1,3,5,6-tetraaza-as-indacen-1-yl]-piperidin-1-yl}-propionitrile]",0.0481 µM,0.138 µM,0.526 µM,0.0175 µM,
"CC(O)c1nc2cnc3[nH]ccc3c2n1C1CCN(Cc2cccc(C#N)c2)CC1 (racemic) [Example 156, Racemic 3-{4-[2-(1-Hydroxy-ethyl)-6H-1,2,3,5,6-tetraaza-as-indacen-1-yl]-piperidin-1-ylmethyl}-benzonitrile]",0.0846 µM,0.0163 µM,0.209 µM,0.00213 µM,
"OC1CCCC(n2nnc3cnc4[nH]ccc4c32)C1 (single isomer, unassigned) [Example 551, 3-(6H-1,2,3,5,6-Pentaaza-as-indacen-1-yl)-cyclohexanol]",0.128 µM,0.019 µM,0.0886 µM,0.0135 µM,
"CC(C)CNC(=O)Cc1nc2cnc3[nH]ccc3c2n1C1CCCOC1 (racemic) [Example 966, N-Isobutyl-2-[1-(tetrahydro-pyran-3-yl)-1,6-dihydro-1,3,5,6-tetraaza-as-indacen-2-yl]-acetamide]",0.196 µM,0.256 µM,0.478 µM,0.038 µM,
"C[C@@H](O)c1nc2cnc3[nH]ccc3c2n1[C@@H]1CCCN(C(=O)C2CCCC2)C1 [Example 788, Cyclopentyl-{(R)-3-[2-((R)-1-hydroxy-ethyl)-6H-1,3,5,6-tetraaza-as-indacen-1-yl]-piperidin-1-yl}-methanone]",0.844 µM,0.792 µM,0.716 µM,0.0671 µM,
"CCn1cc(CN2CCC(n3c([C@@H](C)O)nc4cnc5[nH]ccc5c43)CC2)cn1 [Example 822, (R)-1-{1-[1-(1-Ethyl-1H-pyrazol-4-ylmethyl)-piperidin-4-yl]-1,6-dihydro-1,3,5,6-tetraaza-as-indacen-2-yl}-ethanol]",0.311 µM,0.894 µM,2.81 µM,0.0181 µM,
"Cc1nc2cnc3[nH]ccc3c2n1C1CCc2[nH]ncc2C1 (racemic) [Example 486, 2-Methyl-1-(4,5,6,7-tetrahydro-1H-indazol-5-yl)-1,6-dihydro-1,3,5,6-tetraaza-as-indacene]",0.0101 µM,0.00624 µM,0.0219 µM,0.00345 µM,
"C[C@@H](O)c1nc2cnc3[nH]ccc3c2n1[C@@H]1CCCN(C(=O)C2CCOCC2)C1 [Example 783, {(R)-3-[2-((R)-1-Hydroxy-ethyl)-6H-1,3,5,6-tetraaza-as-indacen-1-yl]-piperidin-1-yl}-(tetrahydro-pyran-4-yl)-methanone]",2.66 µM,1.46 µM,1.79 µM,0.137 µM,
"N#CCCN1CCC(n2nnc3cnc4[nH]ccc4c32)CC1 [Example 232, 3-[4-(6H-1,2,3,5,6-Pentaaza-as-indacen-1-yl)-piperidin-1-yl]-propionitrile]",0.0534 µM,0.00335 µM,0.0193 µM,0.00203 µM,
"N#Cc1cccc(CN2CCC(n3cnc4cnc5[nH]ccc5c43)CC2)c1 [Example 49, 3-[4-(6H-1,3,5,6-Tetraaza-as-indacen-1-yl)-piperidin-1-ylmethyl]benzonitrile]",0.0265 µM,0.00098 µM,0.0357 µM,0.0003 µM,
"CC(C)CC(=O)NCCc1nc2cnc3[nH]ccc3c2n1C1CCN(CCC#N)CC1 [Example 376, N-(2-{1-[1-(2-Cyano-ethyl)-piperidin-4-yl]-1,6-dihydro-1,3,5,6-tetraaza-as-indacen-2-yl}-ethyl)-3-methyl-butyramide]",0.0619 µM,0.0386 µM,0.188 µM,0.00415 µM,
"O=S(=O)(N1CCC(n2cnc3cnc4[nH]ccc4c32)CC1)C(F)(F)F [Example 89, 1-(1-Trifluoromethanesulfonyl-piperidin-4-yl)-1,6-dihydro-1,3,5,6-tetraaza-as-indacene]",0.283 µM,0.0128 µM,0.0983 µM,0.0108 µM,
FC(F)(F)c1nc2cnc3[nH]ccc3c2n1[C@@H]1CCCN(Cc2ccccc2)C1 [Example 287],0.822 µM,0.145 µM,2.05 µM,,0.282 µM
"OC1(C2CC2)CCC(n2cnc3cnc4[nH]ccc4c32)CC1 (stereo not drawn) [Example 996, Cis-1-Cyclopropyl-4-(6H-1,3,5,6-tetraaza-as-indacen-1-yl)-cyclohexanol]",0.0508 µM,0.00385 µM,0.00923 µM,0.00201 µM,
"CCN1CC[C@@H](n2c(CCNS(C)(=O)=O)nc3cnc4[nH]ccc4c32)[C@@H](F)C1 [Example 808, N-{2-[1-((3S,4R)-1-Ethyl-3-fluoro-piperidin-4-yl)-1,6-dihydro-1,3,5,6-tetraaza-as-indacen-2-yl]-ethyl}-methanesulfonamide]",0.128 µM,0.0341 µM,0.303 µM,0.00477 µM,
"N#CCC(=O)N1CCC(F)C(n2nnc3cnc4[nH]ccc4c32)C1 (racemic) [Example 519, 3-[4-Fluoro-3-(6H-1,2,3,5,6-pentaaza-as-indacen-1-yl)-piperidin-1-yl]-3-oxo-propionitrile]",0.033 µM,0.00492 µM,0.0245 µM,0.00174 µM,
"N#CCCN1CCC(n2c(CC(=O)N3CC(F)(F)C3)nc3cnc4[nH]ccc4c32)CC1 [Example 274, 3-(4-{2-[2-(3,3-Difluoro-azetidin-1-yl)-2-oxo-ethyl]-6H-1,3,5,6-tetraaza-as-indacen-1-yl]-piperidin-1-yl}-propionitrile]",0.0393 µM,0.0888 µM,0.259 µM,0.0343 µM,
"c1cc2c(ncc3ncn(C4CCOCC4)c32)[nH]1 [Example 468, 1-(Tetrahydro-pyran-4-yl)-1,6-dihydro-1,3,5,6-tetraaza-as-indacene]",0.15 µM,0.0466 µM,0.0823 µM,0.0144 µM,
"N#CCCN1CCC(n2c(COCC3CCCC3)nc3cnc4[nH]ccc4c32)CC1 [Example 838, 3-[4-(2-Cyclopentylmethoxymethyl-6H-1,3,5,6-tetraaza-as-indacen-1-yl)-piperidin-1-yl]-propionitrile]",0.0904 µM,0.0855 µM,0.618 µM,0.0542 µM,
"CC(C)(C)OC(=O)NC1CCCC(n2cnc3cnc4[nH]ccc4c32)C1 (single isomer, unassigned) [Example 475, [3-(6H-1,3,5,6-Tetraaza-as-indacen-1-yl)-cyclohexyl]-carbamic acid tert-butyl ester]",0.0219 µM,0.11 µM,2.25 µM,0.0324 µM,
"CC1CC(n2cnc3cnc4[nH]ccc4c32)CCN1Cc1ccccc1 (racemic) [Example 127, 1-(1-Benzyl-2-methyl-piperidin-4-yl)-1,6-dihydro-1,2,3,5,6-tetraaza-as-indacene]",0.00846 µM,0.00182 µM,0.0261 µM,0.0026 µM,
